Literature values in patent publication US6150513A, “Polyketide synthase enzymes and recombinant DNA constructs therefor” (Kosan Biosciences, Inc., priority 1998, dated 2000).
pIC50: −log10 of the molar value. Like-named read-outs stand apart in the source and are kept apart here.

How the values were obtained:
[1] = system: nigral-striatal dopamine neurons; conditions: administration of FKBP ligand
[2] = system: FKBP
[3] = system: sensory neurons; conditions: compared with FK-506, FK-520 and rapamycin; Steiner et al., 1997
[4] = system: splenocyte proliferation; conditions: Luengo et al., 1995

CCC(C)(C)C(=O)C(=O)N1CCC[C@H]1C(=O)OCCCc1cccnc1 [GPI-1046]
effect in primate MPTP model [1]: caused brain cells to regenerate and behavioral measures to improve

CO[C@H]1C[C@@H]2CC[C@@H](C)[C@@](O)(O2)C(=O)C(=O)N2CCCC[C@H]2C(=O)O[C@H]([C@H](C)C[C@@H]2CC[C@@H](O)[C@H](OC)C2)CC(=O)[C@H](C)/C=C(\C)[C@@H](O)[C@@H](OC)C(=O)[C@H](C)C[C@H](C)C2C=CC(/C=C/1C)n1c(=O)n(-c3ccccc3)c(=O)n12 [WAY-124,466]
pIC50 ([2]; see Ocain et al., 1993, target not given, context FKBP binding, read-out: IC50): 7.90 | promoting neurite outgrowth in sensory neurons [3]: about as effective as FK-506, FK-520, and rapamycin

CC[C@@H]1/C=C(\C)C(O)[C@H](C)C[C@H](OC)[C@H]2O[C@@](O)(C(=O)C(=O)N3CCCC[C@H]3C(=O)O[C@H](/C(C)=C/[C@@H]3CC[C@@H](O)[C@H](OC)C3)[C@H](C)[C@@H](O)CC1=O)[C@H](C)C[C@@H]2OC (stereo partly drawn) [L-685,818]
pIC50 ([2]; see Dumont et al., 1992, read-out: ED50 for FKBP binding): 9.15 | promoting neurite outgrowth in sensory neurons [3]: about as effective as FK-506, FK-520, and rapamycin

COC(=O)N[C@H]1C[C@@H]2CC[C@@H](C)[C@@](O)(O2)C(=O)C(=O)N2CCCC[C@H]2C(=O)O[C@H]([C@H](C)C[C@@H]2CC[C@@H](O)[C@H](OC)C2)CC(=O)[C@H](C)/C=C(\C)[C@@H](O)[C@@H](OC)C(=O)[C@H](C)C[C@H](C)/C=C/C=C/C=C/1C [compound 1]
reduction in binding to FKBP ([2]; relative to rapamycin, Luengo et al., 1995): 10 fold | activity in the splenocyte proliferation assay [4]: complete loss of activity

CC1(C)COC(=O)CCCCCCOc2cccc(c2)[C@@H](CCc2ccccc2)OC(=O)[C@@H]2CCCCN2C(=O)C1=O [compound 2]
binding to FKBP compared with FK-506 ([2]; in words): about as well as FK-506

COC1CC2CCC(C)C(O)(O2)C(=O)C(=O)N2CCCCC2C(=O)NC(CCc2ccccc2)C(=O)NCC(=O)N(C)CC(=O)OC1C (stereo not drawn) [compound 3]
binding to FKBP, poorer than FK-506 ([2]; relative to FK-506): about 20 fold
